Laboratory results taken from US5808062A, “Pyrone derivatives as protease inhibitors and antiviral agents” (Warner-Lambert Company, priority 1994, dated 1998).
≈ marks a conversion by molar mass, not a printed value.

Tests used:
[1] = system: Staphylococcus aureus UC-76; experiment: Antibacterial activity, microtitration dilution method; assay type: cell-based; settings: UC76, read-out: Antibacterial Activity, minimum inhibitory concentration (MIC)
Text: (§1) The compounds of the invention display antibacterial activity when tested by the microtitration dilution method as described in Heifetz, et al., Antimicr. Agents. & Chemoth. 6:124 (1974) which is incorporated herein by reference.
(§2) By use of the above referenced method, the following minimum inhibitory concentration values (MICs in μg/mL) were obtained for representative compounds of the invention vs. clinically relevant gram positive pathogens which have become highly resistant to conventional therapy in recent years.

[2] = system: Enterococcus foecalis MGH2; experiment: as above; assay type: cell-based; settings: read-out: Antibacterial Activity, minimum inhibitory concentration (MIC)
Text: as §1, §2

[3] = system: Staphylococcus aureus H228; experiment: as above; assay type: cell-based; settings: read-out: Antibacterial Activity, minimum inhibitory concentration (MIC)
Text: as §1, §2

[4] = system: Streptococcus pyogenes C203; experiment: as above; assay type: cell-based; settings: read-out: Antibacterial Activity, minimum inhibitory concentration (MIC)
Text: as §1, §2

[5] = system: Streptococcus pneumonia 5V-1; experiment: as above; assay type: cell-based; settings: Streptococcus pneumoniae, 5V1, read-out: Antibacterial Activity, minimum inhibitory concentration (MIC)
Text: as §1, §2

HIV-I Protease = biological target: T1, HIV-I Protease (Human immunodeficiency virus type 1 group M subtype B, UniProt P04585); experiment: HIV Protease Inhibition (undecapeptide substrate hydrolysis, HPLC); assay type: biochemical; settings: averaged; substrate 40 μM, 37° C., pH 4.7 DTT buffer, 5 minutes; read-out: 50% Inhibition Concentration (Averaged)
T1 construct: HIV-I Protease: The enzyme is obtained from Bachem Bioscience Inc; purchased Bachem Bioscience Inc
Experimental: DTT Buffer: 1.0 mM dithiothreitol (DTT) was prepared fresh daily in 0.1% polyethylene glycol (mw 8000) 80 mM NaOAc, 160 mM NaCl, 1.0 mM EDTA, and brought to pH 4.7 with HCl.
HIV-I Protease: The enzyme is obtained from Bachem Bioscience Inc. The undiluted enzyme is thawed from -80° C. and diluted 50-fold with DTT buffer. The solution is always kept at 0° C. on ice water and used in the experiment within 20 minutes after thawing.
Enzyme Substrate: Substrate III from Bachem Bioscience Inc. is the undecapeptide H-His-Lys-Ala-Arg-Val-Leu-p-Nitrophenylalanine-Glu-Ala-Norleucine-Ser-NH2 (>97% purity). A 200 μM stock solution in DTT buffer is prepared and stored on ice. Substrate solution is prepared fresh daily.
Test Compound: 10 mM inhibitor (I) in dimethyl sulfoxide (DMSO) is diluted to 200 μM with DTT buffer. From the 200 μM stock solution is made a 10 μM stock solution with 2% DMSO in DTT buffer. The two inhibitor solutions are used to make final [I]=100, 50, 20, 10, 5, 2, 1, 0.5 and 0 μM with 2% DMSO in DTT buffer in each reaction well (total inhibitor volume of 50 μl).
To each reaction well is added 20 μl of substrate (final concentration of 40 μM), 50 μl of inhibitor (at a concentration such that final dilution will produce the test concentration) and 20 μl of DTT buffer. The reaction plate (96 wells) is incubated at 37° C. for at least 5 minutes.
10 μl of the diluted protease is added to the reaction well while the reaction plate is shaking. Once shaken for 10 seconds, the plate is returned to the heating block at 37° C. (Final reaction volume=100 μl.)
The reaction is incubated for 5 minutes at 37° C. The reaction is stopped by placing the reaction plate on the shaker and adding 20 μl of 10% trifluoroacetic acid (TFA) and shaking for 10 seconds. The amount of proteolysis is then determined by separation of noncleaved substrate and two cleaved products with reverse-phase HPLC, while measuring absorbance at 220 nm to determine the relative peak areas of the three components. The relative peak areas are used to calculate % conversion to product as a function of inhibitor concentration. The data is plotted as % Control (the ratio of % conversion in the presence and absence of inhibitor×100) versus inhibitor concentration and fit with the equation Y=100/1+(X/IC50)^A, where IC50 is the inhibitor concentration at 50% inhibition and A is the slope of the inhibition curve.

HIV = settings: R. Nagorny et al., AIDS 1993; cited from earlier work

Row | SMILES | MIC [1] [µg/mL] | MIC [2] [µg/mL] | MIC [3] [µg/mL] | MIC [4] [µg/mL] | MIC [5] [µg/mL] | IC50 (HIV-I Protease) [nM] | inhibition of HIV infection (in words) (HIV)
1 | O=c1oc(-c2ccccc2Cl)cc(O)c1SCc1ccccc1 [Example 2, 6-(2-chlorophenyl)-4-hydroxy-3-[(phenylmethyl)thio]-2H-pyran-2-one] | 12.5 (≈ 36.3 µM) | 25 (≈ 72.5 µM) | 12.5 (≈ 36.3 µM) | 12.5 (≈ 36.3 µM) | 12.5 (≈ 36.3 µM) | – | –
2 | O=c1oc(-c2ccc(OCc3ccccc3)cc2)cc(O)c1SCCc1ccccc1 [Example 29, 4-Hydroxy-3-[(2-phenylethyl)thio]-6-[4-(phenylmethoxy)phenyl]-2H-pyran-2-one] | 25 (≈ 58.1 µM) | 50 (≈ 116 µM) | 25 (≈ 58.1 µM) | 25 (≈ 58.1 µM) | 25 (≈ 58.1 µM) | – | –
3 | CCC(=O)Oc1cc(-c2ccccc2)oc(=O)c1SCc1ccccc1 [Example 49, 2-Oxo-6-phenyl-3-[ (phenylmethyl)thio]-2H-pyran-4-ylpropanoic acid ester] | – | – | – | – | – | 1600 | –
4 | O=c1oc(-c2ccc(OCCO)cc2)cc(O)c1SCCc1ccccc1 [Example 160, 4-Hydroxy-6-[4-(2-hydroxyethoxy)phenyl]-3-[(2-phenylethyl)thio]-2H-pyran-2-one] | – | – | – | – | – | 360 | –
5 | CC(C)c1ccccc1Sc1c(O)cc(-c2cccc(-c3ccccc3)c2)oc1=O [Example 167, 6-(1,1'-Biphen-3-yl)-4-hydroxy-3-[(2-isopropylphenyl)thio]-2H-pyran-2-one] | 6.2 (≈ 15 µM) | 12.5 (≈ 30.2 µM) | 6.2 (≈ 15 µM) | 6.2 (≈ 15 µM) | 6.2 (≈ 15 µM) | – | –
6 | Cc1cc(C)cc(-c2cc(O)c(Sc3ccccc3C(C)C)c(=O)o2)c1 [Example 169, 6-(3,5-Dimethylphenyl)-4-hydroxy-3-[(2-isopropylphenyl)-thio]-2H-pyran-2-one] | – | – | – | – | – | 15 | –
7 | CC(C)c1ccccc1Sc1c(O)cc(-c2ccc(OCc3cccnc3)cc2)oc1=O [Example 172, 4-Hydroxy-3-[(2-isopropylphenyl)thio]-6-[4-(pyridin-3-ylmethoxy)phenyl]-2H-pyran-2-one] | 50 (≈ 112 µM) | 100 (≈ 224 µM) | 50 (≈ 112 µM) | 50 (≈ 112 µM) | 50 (≈ 112 µM) | – | –
8 | CC(C)c1ccccc1Sc1c(O)cc(-c2cc(Cl)cc(Cl)c2)oc1=O [Example 193, 6-(3,5-Dichlorophenyl)-4-hydroxy-3-[(2-isopropylphenyl)thio]-2H-pyran-2-one] | – | – | – | – | – | 26 | –
9 | CC(=O)CC(c1ccccc1)c1c(O)c2ccccc2oc1=O (stereo not drawn) [Warfarin, 3-(α-acetonylbenzyl)-4-hydroxycoumarin] | – | – | – | – | – | – | inhibiting cell-free and cell-mediated HIV infection
